Experimental data taken from patent US7417156B2, “Orally active, antimalarial, anticancer, artemisinin-derived trioxane dimers” (Johns Hopkins University, priority 2002, dated 2008).
Where two headings read alike, the source gives them in different places.

Legend:
RXF 393 = assay: NCI 60 cell line panel screen (SRB); type: cell-based, human
NCI-H23 = assay: NCI 60 cell line panel screen (SRB); type: cell-based, human
HCT-116 = assay: NCI 60 cell line panel screen (SRB); type: cell-based, human
RPMI-8226 = assay: NCI 60 cell line panel screen (SRB); type: cell-based, human
PC-3 = assay: NCI 60 cell line panel screen (SRB); type: cell-based, human
EKVX = assay: NCI 60 cell line panel screen (SRB); type: cell-based, human
OVCAR-8 = assay: NCI 60 cell line panel screen (SRB); type: cell-based, human
HOP-62 = assay: NCI 60 cell line panel screen (SRB); type: cell-based, human
SNB-75 = assay: NCI 60 cell line panel screen (SRB); type: cell-based, human
SK-MEL-28 = assay: NCI 60 cell line panel screen (SRB); type: cell-based, human
BT-549 = assay: NCI 60 cell line panel screen (SRB); type: cell-based, human
HT29 = assay: NCI 60 cell line panel screen (SRB); type: cell-based, human
[1] = tested on: chloroquine-sensitive P. falciparum (NF54); assay: Antimalarial activity in vitro, [3H]hypoxanthine incorporation; type: cell-based; conditions: Plasmodium falciparum, read-out: IC50
ACHN = assay: NCI 60 cell line panel screen (SRB); type: cell-based, human
IGROVI = assay: NCI 60 cell line panel screen (SRB); type: cell-based, human
SNB-19 = assay: NCI 60 cell line panel screen (SRB); type: cell-based, human
T-47D = assay: NCI 60 cell line panel screen (SRB); type: cell-based, human; conditions: T-47D (Breast Cancer)
NCI-H460 = assay: NCI 60 cell line panel screen (SRB); type: cell-based, human
60 cell line panel = type: cell-based
UACC-257 = assay: NCI 60 cell line panel screen (SRB); type: cell-based, human
HOP-92 = assay: NCI 60 cell line panel screen (SRB); type: cell-based, human
K-562 = assay: NCI 60 cell line panel screen (SRB); type: cell-based, human

Compound `C[C@@H]1CC[C@H]2[C@@H](C)C(=O)O[C@@H]3O[C@]4(C)CC[C@@H]1[C@]32OO4` [Artemisinin] has a Log10LC50 (RXF 393; RXF 393 (Renal Cancer), LC50: PG=−50) greater than −4.00 log10M, a Log10TGI50 (RXF 393; RXF 393 (Renal Cancer), TGI: PG=0) greater than −4.00 log10M and a Log10GI50 (RXF 393; Renal Cancer, RXF 393) of −4.08. It also gave a Log10LC50 (NCI-H23; NCI-H23 (Non-Small Cell Lung Cancer), LC50: PG=−50) greater than −4.00 log10M, a Log10TGI50 (NCI-H23; NCI-H23 (Non-Small Cell Lung Cancer), TGI: PG=0) greater than −4.00 log10M and a Log10GI50 (NCI-H23; Non-Small Cell Lung Cancer, NCI-H23) greater than −4.00. The Log10GI50 (HCT-116; Colon Cancer, HCT-116) was −4.18, the Log10LC50 (HCT-116; HCT-116 (Colon Cancer), LC50: PG=−50) was greater than −4.00 log10M and the Log10TGI50 (HCT-116; HCT-116 (Colon Cancer), TGI: PG=0) was greater than −4.00 log10M. The Log10GI50 (RPMI-8226; Leukemia, RPMI-8226) was greater than −4.00, the Log10LC50 (RPMI-8226; RPMI-8226 (Leukemia), LC50: PG=−50) was greater than −4.00 log10M and the Log10TGI50 (RPMI-8226; RPMI-8226 (Leukemia), TGI: PG=0) was greater than −4.00 log10M. For the same compound, the Log10LC50 (PC-3; PC-3 (Prostate Cancer), LC50: PG=−50) was greater than −4.00 log10M, the Log10TGI50 (PC-3; PC-3 (Prostate Cancer), TGI: PG=0) was −4.00 log10M and the Log10GI50 (PC-3; Prostate Cancer, PC-3) was −4.17. For the same compound, the Log10LC50 (EKVX; EKVX (Non-Small Cell Lung Cancer), LC50: PG=−50) was greater than −4.00 log10M, the Log10TGI50 (EKVX; EKVX (Non-Small Cell Lung Cancer), TGI: PG=0) was greater than −4.00 log10M and the Log10GI50 (EKVX; Non-Small Cell Lung Cancer, EKVX) was greater than −4.00. For the same compound, the Log10LC50 (OVCAR-8; OVCAR-8 (Ovarian Cancer), LC50: PG=−50) was greater than −4.00 log10M, the Log10TGI50 (OVCAR-8; OVCAR-8 (Ovarian Cancer), TGI: PG=0) was greater than −4.00 log10M and the Log10GI50 (OVCAR-8; Ovarian Cancer, OVCAR-8) was greater than −4.00. For the same compound, the Log10LC50 (HOP-62; HOP-62 (Non-Small Cell Lung Cancer), LC50: PG=−50) was greater than −4.00 log10M, the Log10TGI50 (HOP-62; HOP-62 (Non-Small Cell Lung Cancer), TGI: PG=0) was greater than −4.00 log10M and the Log10GI50 (HOP-62; Non-Small Cell Lung Cancer, HOP-62) was greater than −4.00. The Log10GI50 (SNB-75; CNS Cancer, SNB-75) was greater than −4.00, the Log10LC50 (SNB-75; SNB-75 (CNS Cancer), LC50: PG=−50) was greater than −4.00 log10M and the Log10TGI50 (SNB-75; SNB-75 (CNS Cancer), TGI: PG=0) was greater than −4.00 log10M. The Log10GI50 (SK-MEL-28; Melanoma, SK-MEL-28) was greater than −4.00, the Log10LC50 (SK-MEL-28; SK-MEL-28 (Melanoma), LC50: PG=−50) was greater than −4.00 log10M and the Log10TGI50 (SK-MEL-28; SK-MEL-28 (Melanoma), TGI: PG=0) was greater than −4.00 log10M. The Log10LC50 (BT-549; BT-549 (Breast Cancer), LC50: PG=−50) was greater than −4.00 log10M, the Log10TGI50 (BT-549; BT-549 (Breast Cancer), TGI: PG=0) was greater than −4.00 log10M and the Log10GI50 (BT-549; Breast Cancer, BT-549) was −4.06. It also gave a Log10GI50 (HT29; Colon Cancer, HT29) greater than −4.00, a Log10LC50 (HT29; HT29 (Colon Cancer), LC50: PG=−50) greater than −4.00 log10M and a Log10TGI50 (HT29; HT29 (Colon Cancer), TGI: PG=0) greater than −4.00 log10M. It also gave an IC50 ([1]; NF54, Table I, NF54 strain) of 9.2 ± 1.7 nM, an IC50 ([1]; NF54, running text b206, artemisinin) of 7.7 nM and a Log10LC50 (ACHN; ACHN (Renal Cancer), LC50: PG=−50) greater than −4.00 log10M. For the same compound, the Log10TGI50 (ACHN; ACHN (Renal Cancer), TGI: PG=0) was greater than −4.00 log10M, the Log10GI50 (ACHN; Renal Cancer, ACHN) was greater than −4.00 and the Log10LC50 (IGROVI; IGROVI (Ovarian Cancer), LC50: PG=−50) was greater than −4.00 log10M. The Log10TGI50 (IGROVI; IGROVI (Ovarian Cancer), TGI: PG=0) was greater than −4.00 log10M, the Log10GI50 (IGROVI; Ovarian Cancer, IGROVI) was −4.31 and the Log10GI50 (SNB-19; CNS Cancer, SNB-19) was greater than −4.00. It also gave a Log10LC50 (SNB-19; SNB-19 (CNS Cancer), LC50: PG=−50) greater than −4.00 log10M, a Log10TGI50 (SNB-19; SNB-19 (CNS Cancer), TGI: PG=0) greater than −4.00 log10M and a Log10LC50 (T-47D; LC50: PG=−50) greater than −4.00 log10M. The Log10TGI50 (T-47D; TGI: PG=0) was greater than −4.00 log10M, the Log10LC50 (NCI-H460; NCI-H460 (Non-Small Cell Lung Cancer), LC50: PG=−50) was greater than −4.00 log10M and the Log10TGI50 (NCI-H460; NCI-H460 (Non-Small Cell Lung Cancer), TGI: PG=0) was greater than −4.00 log10M. For the same compound, the Log10GI50 (NCI-H460; Non-Small Cell Lung Cancer, NCI-H460) was greater than −4.00, the “Log10GI50 Delta” value (60 cell line panel) was −4.07 and the “Log10GI50 Range” value (60 cell line panel) was 0.73. The “Log10LC50 Delta” value (60 cell line panel; 60 cell line panel) was −4.00, the “Log10LC50 Range” value (60 cell line panel; 60 cell line panel) was 0.00 and the “Log10TGI50 Delta” value (60 cell line panel; 60 cell line panel) was −4.00. The “Log10TGI50 Range” value (60 cell line panel; 60 cell line panel) was 0.06, the Log10GI50 (UACC-257; Melanoma, UACC-257) was greater than −4.00 and the Log10LC50 (UACC-257; UACC-257 (Melanoma), LC50: PG=−50) was greater than −4.00 log10M. For the same compound, the Log10TGI50 (UACC-257; UACC-257 (Melanoma), TGI: PG=0) was greater than −4.00 log10M, the Log10LC50 (HOP-92; HOP-92 (Non-Small Cell Lung Cancer), LC50: PG=−50) was greater than −4.00 log10M and the Log10TGI50 (HOP-92; HOP-92 (Non-Small Cell Lung Cancer), TGI: PG=0) was greater than −4.00 log10M. For the same compound, the Log10GI50 (HOP-92; Non-Small Cell Lung Cancer, HOP-92) was greater than −4.00, the Log10LC50 (K-562; K-562 (Leukemia), LC50: PG=−50) was greater than −4.00 log10M and the Log10TGI50 (K-562; K-562 (Leukemia), TGI: PG=0) was greater than −4.00 log10M. The Log10GI50 (K-562; Leukemia, K-562) was −4.33.
